Legend:
foxtail, giant [1] = test: Test A preemergence; format: in vivo, Setaria faberii; settings: preemergence
In short: (§1)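 Greenhouse test in loam soil/sand blend; compounds formulated in non-phytotoxic solvent with surfactant, applied as preemergence directed soil spray or postemergence to plants 2–10 cm tall at one- to two-leaf stage. Injury rated visually versus untreated controls after approximately 10 days on a 0 (no effect) to 100 (complete control) scale.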

corn = test: Test A preemergence; format: in vivo, Zea mays; settings: preemergence
In short: as §1

barnyardgrass [2] = test: Test A postemergence; format: in vivo, Echinochloa crus-galli
In short: as §1

crabgrass, large [3] = test: Test A postemergence; format: in vivo, Digitaria sanguinalis
In short: as §1

foxtail, giant [4] = test: Test A postemergence; format: in vivo, Setaria faberii
In short: as §1

morningglory [5] = test: Test A postemergence; format: in vivo, Ipomoea spp.; settings: Postemergence
In short: as §1

rice = test: Test B flood; format: in vivo, Oryza sativa; settings: 250 g ai/ha, visual rating on 0 to 100 scale (0 no effect, 100 complete control), 13 to 15 days
In short: (§2)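 Visual ratings on a 0–100 scale, where 0 means no effect and 100 means complete control, were assigned by comparison with controls 13 to 15 days after treatment. Compounds went into paddy water over 2-leaf plants flooded to 3 cm.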

barnyardgrass [6] = test: Test B flood; format: in vivo, Echinochloa crus-galli; settings: 250 g ai/ha, visual rating on 0 to 100 scale (0 no effect, 100 complete control), 13 to 15 days
In short: as §2

morningglory [7] = test: Test C preemergence; format: in vivo, Ipomoea coccinea; settings: preemergence
In short: (§3)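 Seeds were sown in a loam soil–sand blend and sprayed preemergence with compounds formulated in a non-phytotoxic solvent mixture containing surfactant. Postemergence plants, grown in peat/vermiculite medium to 2–18 cm (1- to 4-leaf stage), received the same formulation. After 13 to 15 days in a greenhouse, injury was rated visually against controls (0 = no effect, 100 = complete control).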

pigweed = test: Test C preemergence; format: in vivo, Amaranthus retroflexus; settings: preemergence
In short: as §3

barnyardgrass [8] = test: Test C preemergence; format: in vivo, Echinochloa crus-galli; settings: preemergence
In short: as §3

galium = test: Test C postemergence; format: in vivo, Galium aparine
In short: as §3

crabgrass, large [9] = test: Test C postemergence; format: in vivo, Digitaria sanguinalis
In short: as §3

nutsedge, yellow = test: Test C postemergence; format: in vivo, Cyperus esculentus
In short: as §3

[10] = 125 g ai/ha, visual injury approx. 10 days after treatment
[11] = 500 g ai/ha, visual injury after approx. 10 days, 0 to 100 scale (0 no effect, 100 complete control)
[12] = Postemergence, 500 g ai/ha, 0 to 100 scale (0 no effect, 100 complete control)
[13] = postemergence, 125 g ai/ha, about 10 days, visual rating on 0 to 100 scale (0 no effect, 100 complete control)
[14] = 31 g ai/ha, visual rating, scale 0 to 100 (0 no effect, 100 complete control), 13 to 15 days
[15] = 62 g ai/ha, scale 0 to 100 (0 no effect, 100 complete control), 13 to 15 days
[16] = 125 g ai/ha, 13 to 15 days, scale 0 to 100, 0 = no effect, 100 = complete control
[17] = 250 g ai/ha, scale 0 to 100, 0 is no effect, 100 is complete control
[18] = Postemergence, 31 g ai/ha, visually evaluated after 13 to 15 days
[19] = postemergence, 62 g ai/ha, scale 0 to 100
[20] = postemergence, 250 g ai/ha, scale 0 to 100 (0 no effect, 100 complete control)
[21] = postemergence, 125 g ai/ha, scale 0 to 100, 0 no effect, 100 complete control

Question: How did the “Foxtail, Giant plant response rating (0 to 100 scale)” value (foxtail, giant [1]; [10]) turn out when `CCCc1cc(C(=O)NC(C)C)nn1Cc1cc(C(F)(F)F)nn1C` [Compound 201] was run?
Answer: 100

Question: What about the “Foxtail, Giant plant response rating” value (foxtail, giant [1]; [11]) of the same compound?
Answer: 100

Question: And the “Corn plant response rating (0 to 100 scale)” value (corn; [10])?
Answer: 10

Question: And the “Corn plant response rating” value (corn; [11])?
Answer: 90

Question: And the “Barnyardgrass plant response rating” value (barnyardgrass [2]; [12])?
Answer: 100

Question: What about the “Barnyardgrass plant response rating” value (barnyardgrass [2]; [13]) of the same compound?
Answer: 80

Question: And the “Crabgrass, Large plant response rating” value (crabgrass, large [3]; [12])?
Answer: 100

Question: And the “Crabgrass, Large plant response rating” value (crabgrass, large [3]; [13])?
Answer: 90

Question: And the “Foxtail, Giant plant response rating” value (foxtail, giant [4]; [12])?
Answer: 100

Question: What about the “Foxtail, Giant plant response rating” value (foxtail, giant [4]; [13]) of the same compound?
Answer: 90

Question: And the “Morningglory plant response rating” value (morningglory [5]; 125 g ai/ha, 0 to 100 scale, 0 no effect, 100 complete control)?
Answer: 90

Question: And the “Morningglory plant response rating” value (morningglory [5]; 500 g ai/ha, 0 to 100 scale (0 no effect, 100 complete control))?
Answer: 100

Question: What about the “Plant response rating, Rice” value (rice) of the same compound?
Answer: 45

Question: And the “Plant response rating, Barnyardgrass” value (barnyardgrass [6])?
Answer: 70

Question: And the “Morningglory plant response rating” value (morningglory [7]; [14])?
Answer: 85

Question: What about the “Morningglory plant response rating” value (morningglory [7]; [15]) of the same compound?
Answer: 100

Question: What about the “Plant response rating, Morningglory” value (morningglory [7]; [16]) of the same compound?
Answer: 100

Question: What about the “Morningglory plant response rating” value (morningglory [7]; [17]) of the same compound?
Answer: 100

Question: What about the “Pigweed plant response rating” value (pigweed; [14]) of the same compound?
Answer: 100

Question: And the “Pigweed plant response rating” value (pigweed; [15])?
Answer: 100

Question: What about the “Plant response rating, Pigweed” value (pigweed; [16]) of the same compound?
Answer: 98

Question: What about the “Pigweed plant response rating” value (pigweed; [17]) of the same compound?
Answer: 98

Question: What about the “Barnyardgrass plant response rating” value (barnyardgrass [8]; [14]) of the same compound?
Answer: 98

Question: And the “Barnyardgrass plant response rating” value (barnyardgrass [8]; [15])?
Answer: 100

Question: And the “Plant response rating, Barnyardgrass” value (barnyardgrass [8]; [16])?
Answer: 100

Question: And the “Barnyardgrass plant response rating” value (barnyardgrass [8]; [17])?
Answer: 100

Question: And the “Plant response rating (scale of 0 to 100 where 0 is no effect and 100 is complete control), Galium” value (galium; [18])?
Answer: 60

Question: And the “Galium plant response rating” value (galium; [19])?
Answer: 80

Question: And the “Plant response rating, Galium” value (galium; [20])?
Answer: 95

Question: And the “Plant response rating, Galium” value (galium; [21])?
Answer: 60

Question: And the “Plant response rating (scale of 0 to 100 where 0 is no effect and 100 is complete control), Crabgrass, Large” value (crabgrass, large [9]; [18])?
Answer: 15

Question: And the “Crabgrass, Large plant response rating” value (crabgrass, large [9]; [19])?
Answer: 10

Question: And the “Plant response rating, Crabgrass, Large” value (crabgrass, large [9]; [20])?
Answer: 50

Question: And the “Plant response rating, Crabgrass, Large” value (crabgrass, large [9]; [21])?
Answer: 15

Question: What about the “Plant response rating (scale of 0 to 100 where 0 is no effect and 100 is complete control), Nutsedge, Yellow” value (nutsedge, yellow; [18]) of the same compound?
Answer: 10

Question: What about the “Nutsedge, Yellow plant response rating” value (nutsedge, yellow; [19]) of the same compound?
Answer: 10

Question: What about the “Plant response rating, Nutsedge, Yellow” value (nutsedge, yellow; [20]) of the same compound?
Answer: 10

Question: What about the “Plant response rating, Nutsedge, Yellow” value (nutsedge, yellow; [21]) of the same compound?
Answer: 5

Source: patent US20150105252A1, “SUBSTITUTED PYRAZOLES AS HERBICIDES” (E I DU PONT DE NEMOURS AND COMPANY, priority 2013, published 2015)
